According to patent US9340559B2, “Proteasome inhibitor delanzomib for use in the treatment of lupus” (Cephalon, Inc., priority 2011, dated 2016):
Where two headings read alike, the source gives them in different places.

Columns and labels:
MRL/lpr mice = assay: Renal histopathology scoring (kidney IC-GN), MRL/lpr mice; format: in vivo, mouse
Experimental: For histological analyses, the left kidney from each animal is removed and fixed in 10% buffered neutral 10% formalin (EMD) for 48 hours on an orbital rocker at 25° C., then washed overnight with running dH2O and stored in 70% ethanol at 4° C. until ready to be processed. Kidney stains used for histological analyses included hematoxylin and eosin (H&E), Periodic Acid Schiff (PAS) and Trichrome stains (Wistar Institute, Philadelphia, Pa.). All 3 stained sections are used by the pathologist for scoring purposes. All histological scoring is performed blinded and by an independent board certified veterinary medical pathologist (Julie Engiles, VMD, DACVP). Multiple stains are used to determine score values. Images in FIG. 17 show worst affected area of section selected blindly by the pathologist.
Kidney IC-GN Scoring Method (Smith, Dong et al. 2007):
1. Glomerular cellularity—Score 1-5: Null, low, moderate, high, severe
2. Glomerular necrosis—Score 1-5: Null, low, moderate, high, severe
3. Glomerulosclerosis—Score 1-5: Null, low, moderate, high, severe
4. Interstitial infiltration—Score 1-5: Null, low, moderate, high, severe
5. Tubular atrophy—Score 1-5: Null, low, moderate, high, severe
6. Interstitial fibrosis—Score 1-5: Null, low, moderate, high, severe
7. Vasculitis—Score 1-5: Null, low, moderate, high, severe
Specific Pathologist Definitions: • Necrosis is defined by the presence of nuclear debris/pyknosis within the glomerular tuft indicative of “necrosis.” In many samples, this is a very mild, rare finding within only a very few segments of the glomerular tuft. Also consider effacement of the glomerular tuft by PAS positive, Trichrome negative material necrosis. • Glomerular sclerosis is defined by increased fibroplasia or fibrosis within the glomerular tuft or capsule. […] Most of the vascular changes are mild and could be considered “arteriosclerosis” characterized by proliferation of the smooth muscle cells, and hyalinization of the extracellular matrix. This change may reflect hypertension secondary to glomerular pathology. In very few animals is there overt “vasculitis.” Most inflammatory changes are within the walls of the blood vessels, with little to no damage to the endothelium, and no overt hemorrhage/fibrin leakage. Many also have perivascular rims of fibroblasts.

NZM mice [1] = format: in vivo, mouse
NZM mice [2] = assay: Collagen type-I cross-linker (CTx) bone resorption biomarker ELISA, serum of NZM mice; format: in vivo, mouse
Experimental: Assay is performed as instructed by the manufacturer. Briefly, biotinylated ratlaps antigen is first added in each well of a 96-well ELISA plate. This plate is covered and incubated for 30 minutes at RT. Plate is washed five times with washing solution and incubated with standards or unknown samples in appropriate wells followed by primary Ab. Incubate overnight for 18 hours at 4° C. followed by washing with buffer. Secondary incubation includes a peroxidase conjugated goat anti-rabbit IgG added to each well and incubation at RT for 1 hour. Incubation with chromogenic substrate solution for 15 minutes at RT in the dark develops the plate for analysis. Stopping solution halts the reaction, absorbance is measured within 2 hours at 450 nm.

NZM mice [3] = assay: Serum C3 complement ELISA, NZM mice (Example 2)

## CC(C)C[C@H](NC(=O)[C@H](Cc1ccccc1)NC(=O)c1cnccn1)B(O)O [bortezomib, reference compound]
MRL/lpr mice; G4: 0.5 mg/kg iv, 1× wk
  EOS glomerular cellularity, percent change vs vehicle: −31%
  EOS glomerular necrosis, percent change vs vehicle: −28%
  EOS glomerulosclerosis, percent change vs vehicle: −42%
  EOS interstitial infiltration, percent change vs vehicle: −47%
  EOS vasculitis, percent change vs vehicle: −42%
  Kidney EOS interstitial fibrosis, percent change vs vehicle: −46%
  Kidney EOS tubular atrophy, percent change vs vehicle: −50%
MRL/lpr mice; G5: 0.3 mg/kg iv, 2× wk
  EOS glomerular cellularity, percent change vs vehicle: −15%
  EOS glomerular necrosis, percent change vs vehicle: −25%
  EOS glomerulosclerosis, percent change vs vehicle: −18%
  EOS interstitial infiltration, percent change vs vehicle: −39%
  EOS vasculitis, percent change vs vehicle: −21%
  Kidney EOS interstitial fibrosis, percent change vs vehicle: −27%
  Kidney EOS tubular atrophy, percent change vs vehicle: −27%
MRL/lpr mice; bortezomib groups
  maximum reduction of renal interstitial infiltration vs vehicle: 47%
MRL/lpr mice; treated weekly with bortezomib
  decrease in average renal pathology score vs vehicle: 1.68 fold
NZM mice [1]; G3 0.3 mg/kg ip, 1× wk
  Cytokine IL-12 AUC, percent change vs vehicle: −32%
  Cytokine IL-13 AUC, percent change vs vehicle: −66%
  Cytokine IL-17A AUC, percent change vs vehicle: −73%
  Cytokine IP-10 AUC, percent change vs vehicle: −50%
  Cytokine MIG AUC, percent change vs vehicle: −67%
  Cytokine TNFα AUC, percent change vs vehicle: 12%
NZM mice [1]; G4 0.3 mg/kg ip, 2× wk
  Cytokine IL-12 AUC, percent change vs vehicle: −55%
  Cytokine IL-13 AUC, percent change vs vehicle: −65%
  Cytokine IL-17A AUC, percent change vs vehicle: −85%
  Cytokine IP-10 AUC, percent change vs vehicle: −59%
  Cytokine MIG AUC, percent change vs vehicle: −72%
  Cytokine TNFα AUC, percent change vs vehicle: −29%
NZM mice [1]; G5 0.3 mg/kg 1× wk ip
  p, serum IL-12p40/p70 concentration vs G9 Vehicle 1× wk ip: NS (NS = not significant (p > 0.05))
  p, serum IL-13 concentration vs G9 Vehicle 1× wk ip: NS (NS = not significant (p > 0.05))
  p, serum IL-17A concentration vs G9 Vehicle 1× wk ip: NS (NS = not significant (p > 0.05))
  p, serum IP-10 concentration vs G9 Vehicle 1× wk ip: p < 0.001
  p, serum MIG concentration vs G9 Vehicle 1× wk ip: NS (NS = not significant (p > 0.05))
  p, serum TNFα concentration vs G9 Vehicle 1× wk ip: NS (NS = not significant (p > 0.05))
NZM mice [1]; G6 0.3 mg/kg 2× wk ip
  p, serum IL-12p40/p70 concentration vs G9 Vehicle 1× wk ip: p < 0.05
  p, serum IL-13 concentration vs G9 Vehicle 1× wk ip: NS (NS = not significant (p > 0.05))
  p, serum IL-17A concentration vs G9 Vehicle 1× wk ip: NS (NS = not significant (p > 0.05))
  p, serum IP-10 concentration vs G9 Vehicle 1× wk ip: p < 0.001
  p, serum MIG concentration vs G9 Vehicle 1× wk ip: NS (NS = not significant (p > 0.05))
  p, serum TNFα concentration vs G9 Vehicle 1× wk ip: NS (NS = not significant (p > 0.05))
NZM mice [1]; once and twice weekly groups
  serum IL-12 decrease vs vehicle, range over the substance's groups: 32-55%
NZM mice [1]; p<0.001 vs CTX, but not to DEX
  serum CXCL9/MIG as compared to CTX: decreased
NZM mice [1]; treatment groups
  IL-13 serum levels compared to vehicle: No significant change
  IL-17A serum levels compared to vehicle: No significant change
NZM mice [2]; G3 0.3 mg/kg ip, 1× wk
  Serum CTx linker AUC, percent change vs vehicle: −27%
NZM mice [2]; G4 0.3 mg/kg ip, 2× wk
  Serum CTx linker AUC, percent change vs vehicle: −35%
NZM mice [2]; treatment groups
  serum CTx levels compared to vehicle: no change in CTx levels
NZM mice [3]; G3 0.3 mg/kg ip, 1× wk
  Serum C3 complement AUC, percent change vs vehicle: 8%
NZM mice [3]; G4 0.3 mg/kg ip, 2× wk
  Serum C3 complement AUC, percent change vs vehicle: −11%

## C[C@@H]1C[C@H]2[C@@H]3CCC4=CC(=O)C=C[C@]4(C)[C@@]3(F)[C@@H](O)C[C@]2(C)[C@@]1(O)C(=O)CO [dexamethasone, Dexamethasone, reference compound]
MRL/lpr mice; G6: 1.5 mg/kg ip, 3× wk
  EOS glomerular cellularity, percent change vs vehicle: −15%
  EOS glomerular necrosis, percent change vs vehicle: −25%
  EOS glomerulosclerosis, percent change vs vehicle: −27%
  EOS interstitial infiltration, percent change vs vehicle: −50%
  EOS vasculitis, percent change vs vehicle: −18%
  Kidney EOS interstitial fibrosis, percent change vs vehicle: −27%
  Kidney EOS tubular atrophy, percent change vs vehicle: −23%
NZM mice [1]; G5 1.5 mg/kg ip, 3× wk
  Cytokine IL-12 AUC, percent change vs vehicle: −48%
  Cytokine IL-13 AUC, percent change vs vehicle: −56%
  Cytokine IL-17A AUC, percent change vs vehicle: −55%
  Cytokine IP-10 AUC, percent change vs vehicle: −37%
  Cytokine MIG AUC, percent change vs vehicle: −68%
  Cytokine TNFα AUC, percent change vs vehicle: 79%
NZM mice [1]; G8 1.5 mg/kg 3× wk ip
  p, serum IL-12p40/p70 concentration vs G5 Bortezomib 0.3 mg/kg 1× wk ip: NS (NS = not significant (p > 0.05))
  p, serum IL-12p40/p70 concentration vs G6 Bortezomib 0.3 mg/kg 2× wk ip: NS (NS = not significant (p > 0.05))
  p, serum IL-12p40/p70 concentration vs G7 CTX 50 mg/kg 1× wk ip: NS (NS = not significant (p > 0.05))
  p, serum IL-12p40/p70 concentration vs G9 Vehicle 1× wk ip: NS (NS = not significant (p > 0.05))
  p, serum IL-13 concentration vs G5 Bortezomib 0.3 mg/kg 1× wk ip: NS (NS = not significant (p > 0.05))
  p, serum IL-13 concentration vs G6 Bortezomib 0.3 mg/kg 2× wk ip: NS (NS = not significant (p > 0.05))
  p, serum IL-13 concentration vs G7 CTX 50 mg/kg 1× wk ip: p < 0.001
  p, serum IL-13 concentration vs G9 Vehicle 1× wk ip: NS (NS = not significant (p > 0.05))
  p, serum IL-17A concentration vs G5 Bortezomib 0.3 mg/kg 1× wk ip: NS (NS = not significant (p > 0.05))
  p, serum IL-17A concentration vs G6 Bortezomib 0.3 mg/kg 2× wk ip: NS (NS = not significant (p > 0.05))
  p, serum IL-17A concentration vs G7 CTX 50 mg/kg 1× wk ip: p < 0.001
  p, serum IL-17A concentration vs G9 Vehicle 1× wk ip: NS (NS = not significant (p > 0.05))
  p, serum IP-10 concentration vs G5 Bortezomib 0.3 mg/kg 1× wk ip: NS (NS = not significant (p > 0.05))
  p, serum IP-10 concentration vs G6 Bortezomib 0.3 mg/kg 2× wk ip: NS (NS = not significant (p > 0.05))
  p, serum IP-10 concentration vs G7 CTX 50 mg/kg 1× wk ip: p < 0.001
  p, serum IP-10 concentration vs G9 Vehicle 1× wk ip: p < 0.001
  p, serum MIG concentration vs G5 Bortezomib 0.3 mg/kg 1× wk ip: NS (NS = not significant (p > 0.05))
  p, serum MIG concentration vs G6 Bortezomib 0.3 mg/kg 2× wk ip: NS (NS = not significant (p > 0.05))
  p, serum MIG concentration vs G7 CTX 50 mg/kg 1× wk ip: p < 0.001
  p, serum MIG concentration vs G9 Vehicle 1× wk ip: NS (NS = not significant (p > 0.05))
  p, serum TNFα concentration vs G5 Bortezomib 0.3 mg/kg 1× wk ip: NS (NS = not significant (p > 0.05))
  p, serum TNFα concentration vs G6 Bortezomib 0.3 mg/kg 2× wk ip: p <0.01
  p, serum TNFα concentration vs G7 CTX 50 mg/kg 1× wk ip: p <0.05
  p, serum TNFα concentration vs G9 Vehicle 1× wk ip: NS (NS = not significant (p > 0.05))
NZM mice [2]; G5 1.5 mg/kg ip, 3× wk
  Serum CTx linker AUC, percent change vs vehicle: 21%
NZM mice [2]; G8 1.5 mg/kg 3× wk ip
  p, serum concentration of collagen type I cross-linker vs G5 Bortezomib 0.3 mg/kg 1× wk ip: p < 0.05
  p, serum concentration of collagen type I cross-linker vs G6 Bortezomib 0.3 mg/kg 2× wk ip: p < 0.01
NZM mice [3]; G5 1.5 mg/kg ip, 3× wk
  Serum C3 complement AUC, percent change vs vehicle: 45%
NZM mice [3]; G8 1.5 mg/kg 3× wk ip
  p, serum C3 complement levels vs G6 Bortezomib 0.3 mg/kg 2× wk ip: p < 0.05
  p, serum C3 complement levels vs G7 CTX 50 mg/kg 1× wk ip: p < 0.01
